According to patent publication EP0863880B1, “NOVEL 1-AR(ALK)YL-IMIDAZOLIN-2-ONES CONTAINING A DISUBSTITUTED AMINE RADICAL IN THE 4TH POSITION, HAVING AN ANTI-CONVULSIVE EFFECT, AND PROCESS FOR THEIR PRODUCTION” (elbion AG, priority 1995, dated 1997):

Assays:
[1] = tested on: s.c. Pentetrazol; assay: s.c. pentetrazole (PTZ) test, mouse i.p.; type: in vivo; settings: Maus i.p.
[2] = tested on: maximaler Elektroschock; assay: maximal electroshock (MES) test, mouse i.p.; type: in vivo; settings: Maus i.p.
[3] = octanol/water partition coefficient; type: physicochemical; settings: Octanol/Wasser, read-out: log P (Verteilungskoeffizient Octanol/Wasser)
[4] = tested on: Neurotoxizität; settings: Ratte, p.o.
[5] = tested on: maximalen Elektroschock; assay: maximal electroshock test, rat p.o.; settings: po, read-out: ED50 (p.o.)
[6] = tested on: s.c. Pentetrazol-Test; assay: s.c. pentetrazole test, rat

SMILES	Wirkung in % der geschützten Tiere ([1]; Dosis 100 mg/kg)	Wirkung in % der geschützten Tiere ([2]; Dosis 100 mg/kg)	logP [3]	Wirkung in % der geschützten Tiere ([2]; Dosis 300 mg/kg)	Wirkung in % der geschützten Tiere ([1]; Dosis 300 mg/kg)	other results
NC(=O)N1c2ccccc2C=Cc2ccccc21 [Carbamazepin, reference compound]	0%	100%				
CCCC(CCC)C(=O)O [Valproat, reference compound]	30%	0%				
O=C1N=C(N2CCOCC2)CN1c1ccccc1 [Verbindung 1]	30%	30%	0.64			
O=C1N=C(N2CCOCC2)CN1c1ccc(Cl)cc1 [Verbindung 2, 1-(4-Chlorphenyl)-4-morpholinoimidazolin-2-on]			1.48	30%		NT50 [4]: > 400 mg/kg; ED50 [5]: 21 mg/kg; ED50 [6]: 16 mg/kg; Wirkung in % der geschützten Tiere ([1]; Dosis 30 mg/kg): 70%
O=C1N=C(N2CCCCC2)CN1c1ccc(Cl)cc1 [Verbindung 3]	100%	100%	2.29			
O=C1N=C(N2CCOCC2)CN1Cc1ccccc1 [Verbindung 4]			0.48	30%	30%	
CN1CCN(C2=NC(=O)N(c3ccc(Cl)cc3)C2)CC1 [Verbindung 5]			2.17	100%	100%	
CN(C)C1=NC(=O)N(c2ccc(Cl)cc2)C1 [Verbindung 6]	20%		1.61	100%		
COc1ccc(N2CC(N3CCCCC3)=NC2=O)cc1 [Verbindung 7]	100%		1.53	100%		
O=C1N=C(N2CCOCC2)CN1c1ccc(Br)cc1 [Verbindung 8]	100%		1.45	30%		
O=C1N=C(N2CCOCC2)CN1c1ccc(F)cc1 [Verbindung 9]	100%	30%	0.97			
O=C1N=C(N2CCOCC2)CN1c1cccc(Cl)c1 [Verbindung 10]			1.28	10%	70%	
O=C1N=C(N2CCCCCC2)CN1c1ccc(Cl)cc1 [Verbindung 11]			2.56	100%	40%	
